Measured values: patent US11851695B2, “Preparing novel steviol glycosides by bioconversion” (The Coca-Cola Company, priority 2016, dated 2023)

Test: Sensory evaluation by a trained panel, single sip protocol
Assay type: in vivo
Conditions: mean panel score, 400 ppm in water at 4° C.; for Bitter Aftertaste Intensity / Sweet Linger Intensity: 1 minute after tasting; for Overall Max Sweetness / Overall Max Bitterness: from sip up to 1 minute; for Bitter Intensity In Mouth: maximum bitterness in mouth during 5 seconds; for Sweet Intensity In Mouth: maximum sweetness in mouth during 5 seconds
Method: The sensory profiles of CC-00326, CC-00342 and CC-00345 were compared to rebaudioside M.
A trained panel evaluated the various samples. Samples were evaluated using a single sip protocol as follows: • Samples were served at approximately 4° C. • Panelists were instructed to take 1 sip of the sample, hold in mouth for 5 seconds, expectorate, and rate the given attributes • A 5 minute break was placed between each sample and panelists were instructed to cleanse their palates with at least 1 bite of unsalted cracker and 2 sips of filtered water • Due to limited sample quantity panelists were given 7 mL aliquots of each sample • Samples were randomized within each session for each panelist • All samples were presented in replicate in each session
Samples were evaluated for the following: • Sweet taste intensity: maximum level of sweetness in mouth during 5 seconds • Bitter taste intensity: maximum level of bitterness in mouth during 5 seconds • Overall maximum sweet intensity: maximum sweet intensity experienced from the time the sip is taken up to 1 minute • Overall maximum bitter intensity: […] experienced from the time the sip is taken up to 1 minute • Sweet linger intensity: sweet intensity 1 minute after tasting the sample • Bitter aftertaste intensity: bitter intensity 1 minute after tasting the sample
Data was analyzed with an ANOVA, with Sample as fixed effects and Panelist and interaction as random effects was used to determine significance between the samples for each attribute at the 95% Confidence Level, two-tailed. Fishers LSD was used to determine significant differences between mean scores.
The sensory profile of (i) 400 ppm CC-00326 was compared to (ii) 400 ppm Reb M 80% (rebaudioside M content 80% by weight on a dry basis). Both samples (i) and (ii) were formulated in a water matrix at 4° C.
The sensory profile of (i) 400 ppm CC-00342 was compared to (ii) 400 ppm Reb M 95% (rebaudioside M content 95% by weight on a dry basis). Both samples (i) and (ii) were formulated in a water matrix at 4° C.
The sensory profile of (i) 400 ppm CC-00345 was compared to (ii) 400 ppm Reb M 95% (rebaudioside M content 95% by weight on a dry basis). Both samples (i) and (ii) were formulated in a water matrix at 4° C.

[1] = Table 3 (CC-00345 vs Reb M 95%)
[2] = Table 3 (CC-00345 vs Reb M 95%), p = 0.08 at the 90% CL
[3] = Table 2 (CC-00342 vs Reb M 95%)
[4] = Table 1 (CC-00326 vs Reb M 80%)

Compound	Bitter Aftertaste Intensity [1] [A]	Sweet Linger Intensity [1] [A]	Overall Max Sweetness [1] [A]	Overall Max Bitterness [2] [A]	Bitter Intensity In Mouth [1] [A]	Sweet Intensity In Mouth [1] [A]	Bitter Aftertaste Intensity [3]	Sweet Linger Intensity [3] [A]	Overall Max Bitterness [3]	Overall Max Sweetness [3] [A]	Bitter Intensity In Mouth [3]	Sweet Intensity In Mouth [3] [A]	Bitter Aftertaste Intensity [4] [A]	Sweet Linger Intensity [4] [A]	Overall Max Bitterness [4]	Overall Max Sweetness [4] [A]	Bitter Intensity In Mouth [4]	Sweet Intensity In Mouth [4]
C=C1C[C@@]23CCC4[C@](C)(C(=O)OC5OC(COC6OC(CO)C(O)C(O)C6O)C(O)C(OC6OC(CO)C(O)C(O)C6O)C5OC5OC(CO)C(O)C(O)C5O)CCC[C@@]4(C)[C@@H]2CCC1(OC1OC(CO)C(O)C(OC2OC(CO)C(O)C(O)C2O)C1OC1OC(CO)C(O)C(O)C1O)C3 (stereo partly drawn) [CC-00345]	1.8	3.9	7.2	2.2	1.3	6.6												
C=C1C[C@@]23CC[C@H]4[C@@](C)(CCC[C@@]4(C)C(=O)O[C@@H]4O[C@H](CO)[C@@H](O)[C@H](O[C@@H]5O[C@H](CO)[C@@H](O)[C@H](O)[C@H]5O)[C@H]4O[C@@H]4O[C@H](CO)[C@@H](O)[C@H](O)[C@H]4O)[C@@H]2CC[C@]1(O[C@@H]1O[C@H](CO)[C@@H](O)[C@H](O[C@@H]2O[C@H](CO)[C@@H](O)[C@H](O)[C@H]2O)[C@H]1O[C@@H]1O[C@H](CO)[C@@H](O)[C@H](O)[C@H]1O)C3 [Reb M 95%, rebaudioside M]	1.3	3.6	7.4	1.5	1.3	7.1	1.0	4.5	2.0	8.5	1.1	7.0						
C=C1C[C@@]23CCC4[C@](C)(C(=O)OC5OC(COC6OC(CO)C(O)C(O)C6O)C(O)C(O)C5O)CCC[C@@]4(C)[C@@H]2CCC1(OC1OC(CO)C(O)C(OC2OC(CO)C(O)C(O)C2O)C1OC1OC(CO)C(O)C(O)C1O)C3 (stereo partly drawn) [CC-00326, 13-[(2-O-β-D-glucopyranosyl-3-O-β-D-glucopyranosyl-β-D-glucopyranosyl)oxy] ent-kaur-16-en-19-oic acid-[(6-O-α-D-glucopyranosyl-β-D-glucopyranosyl) ester]]													0.9	3.9	1.6 B	7.9	0.8 B	6.9 B
C=C1C[C@@]23CC[C@H]4[C@@](C)(CCC[C@@]4(C)C(=O)O[C@@H]4O[C@H](CO)[C@@H](O)[C@H](O[C@@H]5O[C@H](CO)[C@@H](O)[C@H](O)[C@H]5O)[C@H]4O[C@@H]4O[C@H](CO)[C@@H](O)[C@H](O)[C@H]4O)[C@@H]2CC[C@]1(O[C@@H]1O[C@H](CO)[C@@H](O)[C@H](O[C@@H]2O[C@H](CO)[C@@H](O)[C@H](O)[C@H]2O)[C@H]1O[C@@H]1O[C@H](CO)[C@@H](O)[C@H](O)[C@H]1O)C3 [Reb M 80%, rebaudioside M]													1.1	4.3	2.3 A	9.0	1.6 A	8.3 A
C=C1C[C@@]23CCC4[C@](C)(C(=O)OC5OC(COC6OC(CO)C(O)C(O)C6O)C(O)C(O)C5OC5OC(CO)C(O)C(O)C5O)CCC[C@@]4(C)[C@@H]2CCC1(OC1OC(CO)C(O)C(OC2OC(CO)C(O)C(O)C2O)C1OC1OC(CO)C(O)C(O)C1O)C3 (stereo partly drawn) [CC-00342]							1.0	3.8	2.0	8.1	1.2	6.7						
